Results published in patent US20120148857A1, “Treated wood and methods of treatment” (priority 2010, published 2012).
Read-outs that look alike come from different tables or passages of the source.

What was measured:
[1] = from the CRC listed solubility
From the text: Following is a listing of candidate zinc salts with the properties found in the CRC handbook, 65th edition, and their stated solubilities at various temperatures, and molecular weights. The Name in each case is followed by CRC listed solubilities at stated temperatures, Molecular weight, and Molarity of saturated solution.

[2] = pH measurement of aqueous solutions with ion-sensitive FET pH meter; type: physicochemical; conditions: water
From the text: Time was allowed for the pH reading to equilibrate after each addition. This typically took ten to thirty seconds, and increased noticeably with further additions. An Ion-Sensitive FET pH meter was used. The meter was calibrated before and after each measurement series with pH 7.0 buffer solution, and the readings corrected for any meter drift observed. The pH measurements were graphed.
Five milliliters of a solution of pH 4.1 contains about 10^−4 moles H^+ per liter times 5/1000=5×10^−7 moles H^+. Fifteen mL of a solution of pH 7.5 contains 15/1000×10^−75 moles of H^+, or about 10^−9.3 moles H^+. Twenty milliliters of a solution of pH 6.9 contains 20/1000×10^−6.9 moles of H+, or about 10^−8.7 moles of H+.

[3] = Text: Knowing the molecular weight of the product, it was possible to calculate how many moles of water were hydrated. It was thus possible to calculate the molar content of a saturated solution of the particular zinc salt, and thus to determine if is was sufficiently soluble at a low but possible processing temperature for an unheated preservative-treatment facility. […] Ten grams of the clear solution was dried overnight in a 70 C oven. […] Water has a molecular weight of 18.
The anhydrous foamed salt was crushed and added back to the solution, as crystallization seeding.
The washed precipitates were dried to constant weight in a 70 C oven.

[4] = pH test of impregnating solution with Hydrion test paper; conditions: 0.2 molar solution
From the text: It was then allowed to float in a 0.2 molar sodium metaborate solution, absorbing it by capillary wicking. After six hours the upper surface was damp.

Molecule: Zinc Valerate dihydrate
- Molarity of saturated solution [1]: mol/L 0.085

Molecule: zinc borate [zinc borate furnished by City Chemical, reference compound]
- pH of a saturated solution [2]: 6.7

Molecule: O.O.O.O.O.O.O.O.O=S(=O)([O-])c1ccc(O)cc1.O=S(=O)([O-])c1ccc(O)cc1.[Zn+2] [Zinc phenol-sulfonate octahydrate]
- Molarity of saturated solution [1]: mol/L 1.12

Molecule: (ZnO) (B2O3)2
- pH of a saturated solution [2]: 6.7

Molecule: O=C([O-])c1ccccc1.O=C([O-])c1ccccc1.[Zn+2] [Zinc benzoate]
- Molarity of saturated solution [3]: mol/L 0.0117

Molecule: O=B[O-].[Na+] [sodium metaborate]
- pH of solution by Hydrion test paper [4]: 10-11 pH

Molecule: Zinc mandelate
- Molarity of saturated solution ([3]; from the laboratory solubility (10-16 C)): mol/L 0.010
- Solubility (laboratory measurement) ([3]; water, 14 C): Zinc mandelate 0.38 g/100 ml@14 C.

Molecule: Zinc sorbate
- Solubility in words [3]: so little solubility even in hot water

Molecule: O=C([O-])CC(O)C(=O)[O-].[Zn+2] (stereo not drawn) [Zinc malate]
- Molarity of saturated solution [3]: mol/L 0.071
- Molarity of the saturated solution [3]: 0.133 M
- Solubility (laboratory measurement) [3]: Zinc malate 1.4 g/100 ml@16 C.
